Each block holds one compound with its values, some of them ahead of it. Calls of active or inactive are those of the source. No cut-off for these calls is given here.
Experiments:
[1] = molecular target: T1, Nuclear factor erythroid 2-related factor 2 (Mus musculus) (UniProt Q60795); assay: Activation of Nrf2 in mouse BV-2 cells assessed as increase in translocation of Nrf2 into nucleus at 10 uM measured after 6 to 24 hrs by […]; assay type: cell-based; details: filed as activator, time 6-24 hrs
T1 sequence (whole entry): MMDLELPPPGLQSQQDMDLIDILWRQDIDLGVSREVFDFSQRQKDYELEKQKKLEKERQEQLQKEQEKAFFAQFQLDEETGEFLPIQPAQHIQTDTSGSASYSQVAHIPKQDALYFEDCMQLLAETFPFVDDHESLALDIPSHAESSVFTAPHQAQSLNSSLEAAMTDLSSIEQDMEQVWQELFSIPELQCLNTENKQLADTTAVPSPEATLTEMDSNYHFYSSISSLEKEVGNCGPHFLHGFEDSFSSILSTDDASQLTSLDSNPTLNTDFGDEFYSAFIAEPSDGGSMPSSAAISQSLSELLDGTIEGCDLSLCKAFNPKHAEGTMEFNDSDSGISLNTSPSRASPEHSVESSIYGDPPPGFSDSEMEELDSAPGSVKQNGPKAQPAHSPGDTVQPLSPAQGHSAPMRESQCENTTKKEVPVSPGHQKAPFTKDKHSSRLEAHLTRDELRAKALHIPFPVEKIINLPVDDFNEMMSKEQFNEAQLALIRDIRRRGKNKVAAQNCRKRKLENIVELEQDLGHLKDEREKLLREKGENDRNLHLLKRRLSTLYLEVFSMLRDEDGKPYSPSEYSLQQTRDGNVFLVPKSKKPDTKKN

[2] = system: BV-2; assay: Upregulation of NQO-1 in mouse BV-2 cells transfected with Nrf2 shRNA at 10 uM measured after 24 hrs by qPCR analysis; assay type: functional, cell-based
[3] = molecular target: Keap1/Nrf2 (Homo sapiens) (UniProt Q16236+Q14145); assay: Inhibition of Keap1-Nrf2 protein-protein interaction in human HepG2-ARE-C8 cells assessed as Nrf2 activation mediated ARE-driven luciferase activity by measuring fold change at 10 uM measured after 24 hrs by luciferase reporter gene assay; assay type: cell-based
[4] = molecular target: T1, Nuclear factor erythroid 2-related factor 2 (Mus musculus); assay: Activation of Nrf2 in mouse BV-2 cells assessed as increase in NQO-1 mRNA level at 1 to 10 uM by qRT-PCR analysis; assay type: cell-based; details: filed as activator, dose 1-10 µM, time 6-24 hrs
[5] = molecular target: T1, Nuclear factor erythroid 2-related factor 2 (Mus musculus); assay: Activation of Nrf2 in mouse BV-2 cells assessed as increase in HO-1 mRNA level at 10 uM measured within 6 hrs by qRT-PCR analysis relative to negative control; assay type: cell-based; details: time hrs <6
[6] = system: HepG2; assay: Cytotoxicity against human HepG2 cells up to 50 uM by Alamar blue assay; assay type: cell-based
[7] = molecular target: T1, Nuclear factor erythroid 2-related factor 2 (Mus musculus); assay: Activation of Nrf2 in mouse BV-2 cells assessed as upregulation of HO-1 protein expression at 10 uM measured after 24 hrs by Western blot analysis relative to control; assay type: cell-based; details: filed as activator
[8] = molecular target: T1, Nuclear factor erythroid 2-related factor 2 (Mus musculus); assay: Activation of Nrf2 in mouse BV-2 cells assessed as upregulation of NQO-1 protein expression measured after 24 hrs by Western blot analysis; assay type: cell-based; details: filed as activator
[9] = system: BV-2; assay: Antiinflammatory activity in mouse BV-2 cells assessed as suppression of LPS-induced TNF-alpha protein expression at 10 uM measured up to 24 hrs by ELISA; assay type: functional, cell-based
[10] = system: BV-2; assay: Antiinflammatory activity in mouse BV-2 cells assessed as suppression of LPS-induced IL-6 mRNA expression at 10 uM measured up to 24 hrs by qRT-PCR analysis; assay type: functional, cell-based
[11] = system: BV-2; assay: Upregulation of HO-1 in mouse BV-2 cells transfected with Nrf2 shRNA at 10 uM measured after 24 hrs by qPCR analysis; assay type: functional, cell-based
[12] = molecular target: T1, Nuclear factor erythroid 2-related factor 2 (Mus musculus); assay: Activation of Nrf2 in mouse BV-2 cells assessed as increase in HO-1 mRNA level at 1 to 10 uM measured up to 24 hrs by qRT-PCR analysis relative to control; assay type: cell-based
[13] = system: BV-2; assay: Cytotoxicity against mouse BV-2 cells up to 50 uM by Alamar blue assay; assay type: cell-based
[14] = molecular target: T2, Keap1/Nrf2 (Homo sapiens, UniProt Q14145); assay: Inhibition of recombinant human KEAP1 Kelch domain (321 to 609 residues) expressed in Escherichia coli BL21 (DE3)pLysS cells interaction with FITC-9mer Nrf2 (unknown origin) incubated for 30 mins under shaking condition by fluorescence polarization assay
[15] = molecular target: T1, Nuclear factor erythroid 2-related factor 2 (Mus musculus); assay: Activation of Nrf2 in mouse BV-2 cells assessed as increase in NQO-1 mRNA level measured after 6 to 24 hrs by qRT-PCR analysis; assay type: cell-based; details: filed as activator, dose 1-10 µM, time 6-24 hrs
[16] = molecular target: T1, Nuclear factor erythroid 2-related factor 2 (Mus musculus); assay: Activation of Nrf2 in mouse BV-2 cells assessed as upregulation of NQO-1 protein expression at 10 uM measured after 24 hrs by Western blot analysis relative to control; assay type: cell-based; details: filed as activator
[17] = molecular target: T1, Nuclear factor erythroid 2-related factor 2 (Mus musculus); assay: Activation of Nrf2 in mouse BV-2 cells assessed as increase in NQO-1 mRNA level at 10 uM measured after 6 hrs by qRT-PCR analysis relative to control; assay type: cell-based; details: filed as activator
[18] = molecular target: T1, Nuclear factor erythroid 2-related factor 2 (Mus musculus); assay: Activation of Nrf2 in mouse BV-2 cells assessed as increase in DNA binding activity at 10 uM measured after 24 hrs by spectrophotometric analysis relative to control; assay type: cell-based; details: filed as activator
[19] = system: BV-2; assay: Antiinflammatory activity in mouse BV-2 cells assessed as suppression of LPS-induced IL-6 protein expression at 10 uM measured up to 24 hrs by ELISA; assay type: functional, cell-based
[20] = system: BV-2; assay: Antiinflammatory activity in mouse BV-2 cells assessed as suppression of LPS-induced […] protein expression at 10 uM measured up to 24 hrs by ELISA; assay type: functional, cell-based
[21] = molecular target: T1, Nuclear factor erythroid 2-related factor 2 (Mus musculus); assay: Activation of Nrf2 in mouse BV-2 cells assessed as increase in NQO-1 mRNA level at 10 uM measured after 24 hrs by qRT-PCR analysis relative to control; assay type: cell-based; details: filed as activator
[22] = system: BV-2; assay: Antiinflammatory activity in mouse BV-2 cells assessed as suppression of LPS-induced TNF-alpha mRNA expression at 10 uM measured up to 24 hrs by qRT-PCR analysis; assay type: functional, cell-based
[23] = molecular target: T2, Keap1/Nrf2; assay: Inhibition of recombinant human KEAP1 Kelch domain (321 to 609 residues) expressed in Escherichia coli BL21 (DE3)pLysS cells interaction with FITC-9mer Nrf2 (unknown origin) incubated for 30 mins under shaking condition by TR-FRET assay
[24] = molecular target: T1, Nuclear factor erythroid 2-related factor 2 (Mus musculus); assay: Activation of Nrf2 in mouse BV-2 cells assessed as increase in DNA binding activity at 10 uM measured after 6 hrs by spectrophotometric analysis relative to control; assay type: cell-based; details: filed as activator
[25] = system: BV-2; assay: Antiinflammatory activity in mouse BV-2 cells assessed as suppression of LPS-induced […] mRNA expression at 10 uM measured up to 24 hrs by qRT-PCR analysis; assay type: functional, cell-based
[26] = molecular target: T1, Nuclear factor erythroid 2-related factor 2 (Mus musculus); assay: Activation of Nrf2 in mouse BV-2 cells assessed as upregulation of HO-1 protein expression measured after 24 hrs by Western blot analysis; assay type: cell-based; details: filed as activator
[27] = molecular target: T1, Nuclear factor erythroid 2-related factor 2 (Mus musculus); assay: Activation of Nrf2 in mouse BV-2 cells assessed as increase in HO-1 mRNA level at 10 uM measured after 24 hrs by qRT-PCR analysis relative to control; assay type: cell-based; details: filed as activator
[28] = molecular target: T1, Nuclear factor erythroid 2-related factor 2 (Mus musculus); assay: Activation of Nrf2 in mouse BV-2 cells assessed as upregulation of NQO-1 protein expression at 20 uM measured after 24 hrs by Western blot analysis; assay type: cell-based; details: filed as activator
[29] = molecular target: T1, Nuclear factor erythroid 2-related factor 2 (Mus musculus); assay: Activation of Nrf2 in mouse BV-2 cells assessed as upregulation of HO-1 protein expression at 20 uM measured after 24 hrs by Western blot analysis; assay type: cell-based; details: filed as activator

T2 sequence (Q16236 whole entry, the tested form may be a part): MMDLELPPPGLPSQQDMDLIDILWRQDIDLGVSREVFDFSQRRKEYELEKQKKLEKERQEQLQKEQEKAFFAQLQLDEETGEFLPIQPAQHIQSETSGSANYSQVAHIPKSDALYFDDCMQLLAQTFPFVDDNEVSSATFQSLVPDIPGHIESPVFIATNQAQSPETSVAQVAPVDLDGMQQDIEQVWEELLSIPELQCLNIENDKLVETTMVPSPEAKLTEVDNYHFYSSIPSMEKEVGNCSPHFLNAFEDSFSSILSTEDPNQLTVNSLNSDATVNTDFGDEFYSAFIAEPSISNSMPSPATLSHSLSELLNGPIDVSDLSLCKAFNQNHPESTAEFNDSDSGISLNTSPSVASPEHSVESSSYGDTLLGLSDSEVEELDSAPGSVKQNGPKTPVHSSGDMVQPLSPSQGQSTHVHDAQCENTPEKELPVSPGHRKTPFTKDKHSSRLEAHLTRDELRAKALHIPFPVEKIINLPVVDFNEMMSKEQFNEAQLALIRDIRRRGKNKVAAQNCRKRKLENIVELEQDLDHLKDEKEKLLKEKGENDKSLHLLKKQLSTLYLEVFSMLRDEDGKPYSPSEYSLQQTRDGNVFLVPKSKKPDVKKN
T2 sequence (Q14145 whole entry, the tested form may be a part): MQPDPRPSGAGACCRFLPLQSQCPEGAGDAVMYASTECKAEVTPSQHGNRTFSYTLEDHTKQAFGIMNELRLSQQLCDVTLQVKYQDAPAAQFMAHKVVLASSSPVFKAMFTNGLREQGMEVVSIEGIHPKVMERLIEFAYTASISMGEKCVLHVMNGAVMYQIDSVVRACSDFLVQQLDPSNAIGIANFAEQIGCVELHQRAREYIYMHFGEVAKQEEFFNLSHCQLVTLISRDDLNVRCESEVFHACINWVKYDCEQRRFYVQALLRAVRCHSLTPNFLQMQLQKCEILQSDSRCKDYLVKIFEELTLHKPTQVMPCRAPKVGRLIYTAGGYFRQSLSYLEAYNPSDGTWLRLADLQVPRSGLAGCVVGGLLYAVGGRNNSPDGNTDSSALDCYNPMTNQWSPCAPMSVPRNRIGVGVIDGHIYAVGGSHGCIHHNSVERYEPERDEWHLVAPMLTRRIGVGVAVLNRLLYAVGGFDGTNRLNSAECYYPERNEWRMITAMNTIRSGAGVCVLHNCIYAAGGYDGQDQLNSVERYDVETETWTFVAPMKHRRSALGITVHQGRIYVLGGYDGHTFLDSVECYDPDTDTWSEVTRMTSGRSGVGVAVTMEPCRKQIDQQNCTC
Chain of Keap1/Nrf2 (Homo sapiens) (Q14145 whole entry, looked up): as the sequence (Q14145 whole entry, the tested form may be a part) above
Chain of Keap1/Nrf2 (Homo sapiens) (Q16236 whole entry, looked up): as the sequence (Q16236 whole entry, the tested form may be a part) above

SMILES: O=S(=O)(c1ccc(C(F)(F)F)cc1)N(Cc1nnn[nH]1)c1ccc(N(Cc2nnn[nH]2)S(=O)(=O)c2ccc(C(F)(F)F)cc2)c2ccccc12
IC50 [14]: 0.302 µM

SMILES: O=C(O)CN(c1ccc(N(CC(=O)O)S(=O)(=O)c2ccc(N3C(=O)c4ccccc4C3=O)cc2)c2ccccc12)S(=O)(=O)c1ccc(N2C(=O)c3ccccc3C2=O)cc1
IC50 [14]: 0.082 µM
IC50 [23]: 0.0115 µM

SMILES: O=C(O)CN(c1ccc(N(CC(=O)O)S(=O)(=O)c2ccc(C(F)(F)F)cc2)c2ccccc12)S(=O)(=O)c1ccc(C(F)(F)F)cc1
IC50 [14]: 0.384 µM

SMILES: CN(C)C=O
Activity [28]: Active
Activity [29]: Active

SMILES: COc1ccc(S(=O)(=O)N(Cc2nnn[nH]2)c2ccc(N(Cc3nnn[nH]3)S(=O)(=O)c3ccc(OC)cc3)c3ccccc23)cc1
IC50 [14]: 0.0967 µM
IC50 [23]: 0.0108 µM

SMILES: O=C(O)CN(c1ccc(N(CC(=O)O)S(=O)(=O)c2ccc3c(c2)CCCO3)c2ccccc12)S(=O)(=O)c1ccc2c(c1)CCCO2
fold change (FC) [5]: < 2
Activity [6]: Non-Toxic
Activity [13]: Non-Toxic
IC50 [14]: 0.146 µM
fold change (FC) [17]: 4

The remaining compounds from weak to strong by IC50 [14], led by results:

IC50 [14]: 0.235 µM
SMILES: O=C(O)CN(c1ccc(N(CC(=O)O)S(=O)(=O)c2ccc(Br)cc2)c2ccccc12)S(=O)(=O)c1ccc(Br)cc1

IC50 [14]: 0.194 µM
SMILES: CS(=O)(=O)Nc1ccc(S(=O)(=O)N(CC(=O)O)c2ccc(N(CC(=O)O)S(=O)(=O)c3ccc(NS(C)(=O)=O)cc3)c3ccccc23)cc1

IC50 [14]: 0.184 µM
SMILES: COc1ccc(S(=O)(=O)N(CC(=O)O)c2ccc(N(CC(=O)O)S(=O)(=O)c3ccc(OC)cc3Br)c3ccccc23)c(Br)c1

fold change (FC) [5]: < 2
IC50 [14]: 0.164 µM
fold change (FC) [27]: 4
SMILES: O=C(O)CN(c1ccc(N(CC(=O)O)S(=O)(=O)c2ccc3c(c2)CCO3)c2ccccc12)S(=O)(=O)c1ccc2c(c1)CCO2
Activity [6]: Non-Toxic
Activity [13]: Non-Toxic

fold change (FC) [3]: > 2
fold change (FC) [5]: < 2
IC50 [14]: 0.149 µM
SMILES: O=C(O)CN(c1ccc(N(CC(=O)O)S(=O)(=O)c2ccc3c(c2)OCO3)c2ccccc12)S(=O)(=O)c1ccc2c(c1)OCO2
Activity [6]: Non-Toxic
Activity [13]: Non-Toxic

Activity [1]: Active
fold change (FC) [3]: > 2
Activity [4]: Tde
fold change (FC) [5]: < 2
fold change (FC) [7]: 2
Activity [8]: Dose-Dependent Effect
fold change (FC) [12]: < 2
IC50 [14]: 0.144 µM
Activity [15]: Dose-Dependent Effect
fold change (FC) [16]: 3
fold change (FC) [17]: 3
fold change (FC) [18]: 3
fold change (FC) [21]: 18
IC50 [23]: 0.0089 µM
fold change (FC) [24]: 3
Activity [26]: Dose-Dependent Effect
SMILES: O=C(O)CN(c1ccc(N(CC(=O)O)S(=O)(=O)c2cc3c(cc2Cl)OCCO3)c2ccccc12)S(=O)(=O)c1cc2c(cc1Cl)OCCO2
Activity [2]: inactive
Activity [6]: Non-Toxic
Activity [9]: Active
Activity [10]: Active
Activity [11]: inactive
Activity [13]: Non-Toxic
Activity [19]: Active
Activity [20]: Active
Activity [22]: Active
Activity [25]: Active

IC50 [14]: 0.126 µM
SMILES: O=C(O)CN(c1ccc(N(CC(=O)O)S(=O)(=O)c2ccc(NC(=O)C(F)(F)F)cc2)c2ccccc12)S(=O)(=O)c1ccc(NC(=O)C(F)(F)F)cc1

fold change (FC) [5]: < 2
IC50 [14]: 0.12 µM
IC50 [23]: 0.0313 µM
SMILES: O=C(O)CN(c1ccc(N(CC(=O)O)S(=O)(=O)c2ccc3c(c2)OCCO3)c2ccccc12)S(=O)(=O)c1ccc2c(c1)OCCO2
Activity [6]: Non-Toxic
Activity [13]: Non-Toxic

fold change (FC) [5]: < 2
IC50 [14]: 0.0935 µM
IC50 [23]: 0.0072 µM
SMILES: O=S(=O)(c1ccc2c(c1)OCCO2)N(Cc1nnn[nH]1)c1ccc(N(Cc2nnn[nH]2)S(=O)(=O)c2ccc3c(c2)OCCO3)c2ccccc12
Activity [6]: Non-Toxic
Activity [13]: Non-Toxic

— ChEMBL document CHEMBL4811319, “Optimization of 1,4-bis(arylsulfonamido)naphthalene-N,N'-diacetic acids as inhibitors of Keap1-Nrf2 protein-protein interaction to suppress neuroinflammation” (Bioorg Med Chem, 2021)
